Test results from patent US7834144B2 (priority 2005, dated 2010).
Several values for one entry are separate records, joined by “and”; a condition that tells them apart may be missing. Equal entries are not always repeated. Where two headings read alike, the source gives them in different places. Where a SMILES comes first, the peptide text is derived from it. Where no end group is shown, it is not given here. [ ]: non-standard residue; d: D form. The star is where a group is joined. ξ: configuration not given here. Biotinyl(4ξ) = O=C1N[C@H]2CSC(CCCCC(=O)*)[C@H]2N1; Nspe = C[C@H](NCC(=O)O)c1ccccc1; NhArg = N=C(N)NCCCCNCC(=O)O; Nmpe = not defined here; Nae = not defined here; Nlys = NCCCCNCC(=O)O

Assays:
PrPc = PrPc (Homo sapiens, UniProt P04156); type: binding
PrP^Sc = PrP^Sc (Homo sapiens, UniProt P04156); type: binding; conditions: for Exp. Mean (1 ul 10% CJD BH): streptavidin beads
[1] = Table 5, 70% human plasma, streptavidin beads, ELISA signal
[2] = Table 5, 1 ul 10% CJD BH, 70% human plasma
[3] = Table 5, 70% human plasma, ELISA signal
[4] = Table 6, CJD brain homogenate in 20% human plasma
[5] = Table 6, CJD brain homogenate in 20% human plasma, ELISA signal

Compound	Control Mean (1 ul 10% Normal BH) (PrPc; [1])	Exp. Mean (as % of 68) (PrP^Sc; [2]) [%]	Exp. Mean (1 ul 10% CJD BH) (PrP^Sc; [3])	Mean (% of 68) (PrP^Sc; [4]) [%]	Mean (PrP^Sc; [5])	also measured
CC(=O)N(CCCCN)CC(=O)N(CCCCN)CC(=O)N(CCCCNC(=N)N)CC(=O)N(CC(=O)N(CCCCN)CC(=O)N(CC(=O)N[C@@H](CCCCNC(=O)CCCCC1SC[C@@H]2NC(=O)N[C@H]12)C(N)=O)[C@@H](C)c1ccccc1)[C@@H](C)c1ccccc1 (some centres unmarked) [Peptoid Reagent II] (Ac-[Nlys][Nlys][NhArg][Nspe][Nlys][Nspe]K(Biotinyl(4ξ))-NH2)	7.02	110.8	463.5	124.85	106.10	–
CC(=O)N(CCCCN)CC(=O)N(CCCCN)CC(=O)N(CCCCN)CC(=O)N(CC(=O)N(CCCCN)CC(=O)N(CC(=O)N[C@@H](CCCCNC(=O)CCCCC1SC[C@@H]2NC(=O)N[C@H]12)C(N)=O)[C@@H](C)c1ccccc1)[C@@H](C)c1ccccc1 (some centres unmarked) [Peptoid Reagent IX] (Ac-[Nlys][Nlys][Nlys][Nspe][Nlys][Nspe]K(Biotinyl(4ξ))-NH2)	9.47	126.5	528.8	–	–	Control Mean (1 ul 10% Normal BH) (PrPc; Table 4, 70% human plasma, streptavidin beads, ELISA signal): 20.1; Exp. Mean (as % of 68) (PrP^Sc; Table 4, 1 ul 10% CJD BH, 70% human plasma): 121.9%; Exp. Mean (1 ul 10% CJD BH) (PrP^Sc; Table 4, 70% human plasma, ELISA signal): 1039.4
CC(=O)N(CCCCN)CC(=O)N(CCCCN)CC(=O)N(CCCCN)CC(=O)N(CCCCN)CC(=O)N(CCCCN)CC(=O)N[C@@H](CCCCNC(=O)CCCCC1SC[C@@H]2NC(=O)N[C@H]12)C(N)=O (some centres unmarked) [Peptoid Reagent I]	–	–	–	104.31	88.64	Normal Mean (PrPc; Table 8, 2 microliters of 10% normal brain homogenate in 70% human plasma): 3.31; CJD Mean (PrP^Sc; Table 8, 2 microliters of 10% CJD brain homogenate in 70% human plasma): 124.47
CC(=O)N(CCCCN)CC(=O)N(CC(=O)N(CCCCN)CC(=O)N(CCCCN)CC(=O)N(CC(=O)N(CCCCN)CC(=O)N[C@@H](CCCCNC(=O)CCCCC1SC[C@@H]2NC(=O)N[C@H]12)C(N)=O)[C@@H](C)c1ccccc1)[C@@H](C)c1ccccc1 (some centres unmarked) [Peptoid Reagent X] (Ac-[Nlys][Nspe][Nlys][Nlys][Nspe][Nlys]K(Biotinyl(4ξ))-NH2)	7.28	114.5	478.7	–	–	–
(GGG)KKRPKPGG [compound 68, reference compound]	–	–	–	–	–	Control Mean (1 ul 10% Normal BH) (PrPc): 19.2; Exp. Mean (as % of 68) (PrP^Sc): 100.0% and 100.1%; Mean (PrP^Sc): 84.98 and 137.9; Mean (% of 68) (PrP^Sc): 100.0%
(GGG)QWNKPSKPKTN [compound 14, reference compound]	–	–	–	–	–	Mean (PrP^Sc): 4.74; Mean (% of 68) (PrP^Sc): 5.58%
Peptoid Reagent III: peptoid reagent comprising SEQ ID NO: 231, Nae-Nmpe-Nmpe-Nae-Nmpe-Nmpe-Nae-Nmpe-Nmpe ([Nae][Nmpe][Nmpe][Nae][Nmpe][Nmpe][Nae][Nmpe][Nmpe]; reading uncertain; also: printed as Nae-Nmpe-Nmpe-Nae-Nmpe-Nmpe-Nae-Nmpe-Nmpe)	–	–	–	2.15	1.83	–
